From patent US6620828B2, “Thiazole compounds and pharmaceutical compositions for inhibiting protein kinases and methods for their use” (Agouron Pharmaceuticals, Inc., priority 1999, dated 2003)

How the values were obtained:
[1] = test system: VEGF dependent retinal neovascularization; test: In vivo assay in neonatal rat model of retinopathy of prematurity; settings: intravitreal injection
Description: In Vivo Assay of Retinal Vascular Development in Neonatal Rat Model of Retinopathy of Prematurity
A second model of VEGF dependent retinal neovascularization was employed to evaluate the activities of this series of compounds. In this model (Penn et. al, Invest. Ophthalmol. Vis. Sci., 36, 2063, (1995)), rats pups (n=16) with their mother are placed in a computer controlled chamber that regulates the concentration of oxygen. The animals are exposed for 24 hours to a concentration of 50% oxygen followed by 24 hours at a concentration of 10% oxygen. This alternating cycle of hyperoxia followed by hypoxia is repeated 7 times after which the animals are removed to room air (P14). Compounds are administered via intravitreal injection upon removal to room air and the animals are sacrificed 6 days later (P20). The isolated retinas are then isolated, stained mounted and analyzed as detail above in the development model. The effectiveness was also graded as is described for the development model.

[2] = molecular target: T1, FGF-R1 (Homo sapiens, UniProt P11362, C488A/C584S/L457V); test: FGF-R spectrophotometric assay; format: biochemical; settings: Table 3; % inh @ 1 uM; read-out: FGF-P Ki (nM) (% inh @ 1 uM)
T1 construct: starting from the endogenous methionine residue 456 to glutamate 766; made in house; host or cells: baculovirus vector expression system
In short: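 Kinase domain (Met456–Glu766, baculovirus-expressed) used at 50 nM in a spectrophotometric assay run as for VEGF-R2. Substrates were 2 mM ATP and 15 mM poly(E4Y1).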

[3] = molecular target: T2, LCK tyrosine kinase (Homo sapiens, UniProt P06239, C224D/P223M); test: LCK spectrophotometric assay; format: biochemical; settings: Table 3, read-out: LCK (% inh @ 1 uM)
T2 construct: starting from amino acid residue 223 to the end of the protein at residue 509; made in house; host or cells: insect cells

[4] = molecular target: T3, phosphorylated VEGF-R2Δ50 (FLVK-P) (Homo sapiens, UniProt P35968, DEL940-989/E990V); test: VEGF-R2 coupled spectrophotometric (FLVK-P) assay; format: biochemical; settings: Table 3; at 50 nM
T3 construct: VEGF-R2Δ50 contains residues 806-939 and 990-1171; made in house; host or cells: baculovirus/insect cells
In short: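 Baculovirus-expressed human VEGF-R2Δ50 (residues 806-939/990-1171, E990V) was autophosphorylated with 3 mM ATP, 40 mM MgCl2 for 2 h at 4° C. ADP formation was coupled via PK/LDH to NADH oxidation, read at 340 nm, with 5.1 mM poly(E4Y1), 1 mM ATP, 25 mM MgCl2, Hepes pH 7.5. Ki came from activity across compound concentrations.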

[5] = test system: human umbilical vein endothelial cells (HUVEC); test: HUVEC proliferation assay; format: cell-based; settings: Homo sapiens, HUVEC, Table 3
In short: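 Readout was MTT dye reduction (A595) after 72 h of stimulation with VEGF at 6 ng/ml final. Compound, in 0.1% DMSO final, was added 1 h before VEGF to HUVEC starved 24 h in 1% FBS. % inhibition was scaled between VEGF-alone and unstimulated wells; IC50 was fitted from triplicate dose curves.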

T1 sequence (P11362 456-766 L457V/C488A/C584S): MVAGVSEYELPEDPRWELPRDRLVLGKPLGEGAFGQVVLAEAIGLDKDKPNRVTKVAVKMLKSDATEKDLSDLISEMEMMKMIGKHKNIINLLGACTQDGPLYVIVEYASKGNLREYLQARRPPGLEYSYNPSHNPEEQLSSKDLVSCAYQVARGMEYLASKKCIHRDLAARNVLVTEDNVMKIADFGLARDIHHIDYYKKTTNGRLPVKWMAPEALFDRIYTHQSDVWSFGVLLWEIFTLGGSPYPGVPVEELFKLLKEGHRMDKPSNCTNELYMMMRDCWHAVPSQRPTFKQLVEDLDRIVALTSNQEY
T2 sequence (P06239 223-509 P223M/C224D): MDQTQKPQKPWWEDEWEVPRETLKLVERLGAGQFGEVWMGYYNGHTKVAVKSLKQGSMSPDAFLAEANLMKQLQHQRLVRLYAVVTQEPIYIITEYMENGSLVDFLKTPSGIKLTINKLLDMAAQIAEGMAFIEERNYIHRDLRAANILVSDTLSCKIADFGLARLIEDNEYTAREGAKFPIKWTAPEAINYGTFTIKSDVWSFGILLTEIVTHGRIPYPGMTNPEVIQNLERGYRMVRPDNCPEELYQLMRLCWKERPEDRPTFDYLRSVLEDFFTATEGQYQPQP
T3 sequence (P35968 with tags, fused parts or gaps DEL940-989/E990V limits assumed): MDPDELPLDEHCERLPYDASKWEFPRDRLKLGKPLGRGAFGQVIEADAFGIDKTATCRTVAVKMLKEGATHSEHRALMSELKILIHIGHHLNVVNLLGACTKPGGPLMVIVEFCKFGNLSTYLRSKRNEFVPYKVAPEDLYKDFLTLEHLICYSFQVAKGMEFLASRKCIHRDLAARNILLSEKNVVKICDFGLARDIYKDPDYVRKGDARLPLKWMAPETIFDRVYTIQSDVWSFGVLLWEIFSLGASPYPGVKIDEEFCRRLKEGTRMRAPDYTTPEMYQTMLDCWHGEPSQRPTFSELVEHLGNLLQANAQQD

## COc1cccc(C(=O)Nc2ccc(C)c(-c3noc(-c4sc(Nc5cc(OC)c(OC)c(OC)c5)nc4N)n3)c2)c1 [D(74), 3-[3-[(3-methoxybenzoyl)amino]-6-methyl-phenyl]-5-[2-[(3,4,5-trimethoxyphenyl)amino]-4-amino-5-thiazolyl]-1,2,4-oxadiazole]
[1]
  Vessel regression grade: ++ (two pluses being judged to be approximately 25-75% regression)
[2]
  inhibition at 1 µM: 61%
[3]
  inhibition at 1 µM: 92%
[4]
  inhibition at 0.05 µM: 91%
[5]
  IC50: 5.2 nM
